One series has as its target Acetylcholinesterase (Homo sapiens, UniProt P22303). Briefly: Inhibition of human AchE by Ellman's method.
The target in a further series is Histone deacetylase 2 (Homo sapiens, UniProt Q92769). Briefly: Inhibition of human HDAC2 in HeLa cells extract incubated for 5 mins followed by substrate addition and measured after 15 mins using Fluor-de-Lys as substrate by spectrofluorometric analysis. The format is cell-free.
Series [1] can be described thus: Inhibition of synthetic AcPHF6 peptide aggregation measured upto 120 mins at 1 min interval by ThT-based fluorometric assay.
For another series, the target named is Histone deacetylase 4 (Homo sapiens, UniProt P56524). Briefly: Inhibition of human HDAC4 in HeLa cells extract incubated for 5 mins followed by substrate addition and measured after 15 mins using Fluor-de-Lys as substrate by spectrofluorometric analysis. Format: cell-free.
The next series concerns the target Histone deacetylase 8 (Homo sapiens, UniProt Q9BY41). Briefly: Inhibition of human HDAC8 in HeLa cells extract incubated for 5 mins followed by substrate addition and measured after 15 mins using Fluor-de-Lys as substrate by spectrofluorometric analysis. Format: cell-free.
The next series has as its target Histone deacetylase 7 (Homo sapiens, UniProt Q8WUI4). Briefly: Inhibition of human HDAC7 in HeLa cells extract incubated for 5 mins followed by substrate addition and measured after 15 mins using Fluor-de-Lys as substrate by spectrofluorometric analysis. Format: cell-free.
The subject of series [2] is HT-22. Briefly: Neuroprotective activity against glutamate induced-neurotoxicity in mouse HT-22 cells assessed as cell viability preincubated for 4 hrs followed by glutamate stimulation and measured after 12 hrs by MTT assay. Format: functional, cell-based.
Series [3] deals with HT-22. Briefly: Neuroprotective activity against glutamate induced-neurotoxicity in mouse HT-22 cells assessed as cell viability at 40 uM preincubated for 4 hrs followed by glutamate stimulation and measured after 12 hrs by MTT assay. The note with it: time 16 hrs, read-out: Activity. Format: functional.
Series [4] can be described thus: Cytotoxicity against human HEK293T cells. Format: toxicity, cell-based, HEK-293T.
Series [5] concerns Mycobacterium tuberculosis. Briefly: Antimicrobial activity against Mycobacterium tuberculosis H37Rv assessed as reduction in bacterial growth incubated for 7 days by broth micro dilution method. Format: functional. The conditions noted are these: 168 h, time 7 day.
The subject of series [6] is Pseudomonas aeruginosa. Briefly: Antimicrobial activity against Pseudomonas aeruginosa assessed as bacterial growth inhibition. The format is functional.
For series [7], the system named is Staphylococcus aureus. Briefly: Antimicrobial activity against Staphylococcus aureus assessed as bacterial growth inhibition. The format is functional.
The test system of series [8] is Aspergillus flavus. Briefly: Antifungal activity against Aspergillus flavus assessed as reduction in fungal growth. Format: functional.
A further series deals with Aspergillus niger. Briefly: Antifungal activity against Aspergillus niger assessed as reduction in fungal growth. The format is functional.
For a further series, the system named is PC-3. Briefly: Antiproliferative activity against doxorubicin resistant human PC-3 cells assessed as inhibition of cell proliferation by Beckman Coulter analysis. Format: functional, cell-based.
In series [9] the test system is Pseudomonas aeruginosa. Briefly: Antimicrobial activity against Pseudomonas aeruginosa MTCC 1688 assessed as bacterial growth inhibition by broth microdilution method. The format is functional.
The next series deals with Casein kinase 2 (Homo sapiens, UniProt P67870+P68400+P19784+Q8NEV1). Briefly: Inhibition of recombinant human CK2 using RRRDDDSDDD as substrate in presence of [gamma-33P-ATP] incubated for 20 mins by beta-counter analysis. The format is protein assay.
For the next series, the system named is U-251. Briefly: Antiproliferative activity against doxorubicin resistant human U-251 cells assessed as inhibition of cell viability incubated for 48 hrs by sulforhodamine B assay. Format: functional, cell-based. The conditions noted are these: U-251, 48 h.
Series [10] has as its system Aspergillus flavus. Briefly: Antifungal activity against Aspergillus flavus NRRL-3357 assessed as reduction in fungal growth by well diffusion method. Format: functional.
In the next series the test system is Bacillus subtilis. Briefly: Antimicrobial activity against Bacillus subtilis MTCC 121 assessed as bacterial growth inhibition incubated for 24 hrs by well diffusion method. Format: functional.
The subject of another series is Candida albicans. Briefly: Antifungal activity against Candida albicans assessed as reduction in fungal growth by well diffusion method. Format: functional.
The test system of series [11] is Staphylococcus aureus. Briefly: Antimicrobial activity against Staphylococcus aureus MTCC96 assessed as bacterial growth inhibition incubated for 24 hrs by well diffusion method. Format: functional.
The test system of another series is Proteus vulgaris. Briefly: Antimicrobial activity against Proteus vulgaris assessed as bacterial growth inhibition incubated for 24 hrs by well diffusion method. Format: functional.
The next series concerns Escherichia coli. Briefly: Antimicrobial activity against Escherichia coli MTCC43 assessed as bacterial growth inhibition incubated for 24 hrs by well diffusion method. Format: functional.
Series [12] concerns the target Serine/threonine-protein kinase AKT (Homo sapiens, UniProt P31751+Q9Y243+P31749). Briefly: Inhibition of AKT (unknown origin) by FRET based Z'-LYTE assay. Format: protein assay.
A short description of series [13]: Inhibition of equine serum BuChE using butyrylthiocholine iodide as substrate preincubated for 15 mins followed by substrate addition and measured after 2 mins by DTNB reagent based Ellman's method.
The target in series [14] is T1, Amyloid-beta precursor protein (Homo sapiens, UniProt P05067). Briefly: Inhibition of amyloid beta (1 to 42) (unknown origin) self aggregation by ThT-based fluorometric assay.
In series [15] the target is T2, Amine oxidase [flavin-containing] B (Homo sapiens, UniProt P27338).
T2 sequence (P27338 whole entry): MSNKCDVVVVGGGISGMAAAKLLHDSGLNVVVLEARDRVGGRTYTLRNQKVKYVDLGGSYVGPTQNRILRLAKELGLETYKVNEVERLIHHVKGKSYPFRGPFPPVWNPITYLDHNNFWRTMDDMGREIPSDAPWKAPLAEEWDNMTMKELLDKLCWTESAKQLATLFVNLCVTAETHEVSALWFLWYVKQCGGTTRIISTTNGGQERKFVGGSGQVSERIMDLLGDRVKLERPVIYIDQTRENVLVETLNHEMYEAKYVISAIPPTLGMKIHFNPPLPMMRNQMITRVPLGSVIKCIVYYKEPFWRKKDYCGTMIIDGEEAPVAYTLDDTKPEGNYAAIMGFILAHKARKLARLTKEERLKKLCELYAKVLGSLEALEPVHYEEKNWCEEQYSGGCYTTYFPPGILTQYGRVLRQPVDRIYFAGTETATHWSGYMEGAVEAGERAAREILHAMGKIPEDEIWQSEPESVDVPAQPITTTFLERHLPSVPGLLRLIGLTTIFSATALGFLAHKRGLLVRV
Briefly: Inhibition of recombinant human MAO-B.

Series [16] deals with T1, Amyloid-beta precursor protein. Briefly: Inhibition of self-induced amyloid beta (1 to 42) (unknown origin) disaggregation by ThT-based fluorometric assay.

The record followed here is ChEMBL document CHEMBL5236572, “Bioactive Aurones, Indanones, and Other Hemiindigoid Scaffolds: Medicinal Chemistry and Photopharmacology Perspectives” (J Med Chem, 2022).

≈ marks a conversion by molar mass, not a printed value.

T1 sequence (P05067 whole entry): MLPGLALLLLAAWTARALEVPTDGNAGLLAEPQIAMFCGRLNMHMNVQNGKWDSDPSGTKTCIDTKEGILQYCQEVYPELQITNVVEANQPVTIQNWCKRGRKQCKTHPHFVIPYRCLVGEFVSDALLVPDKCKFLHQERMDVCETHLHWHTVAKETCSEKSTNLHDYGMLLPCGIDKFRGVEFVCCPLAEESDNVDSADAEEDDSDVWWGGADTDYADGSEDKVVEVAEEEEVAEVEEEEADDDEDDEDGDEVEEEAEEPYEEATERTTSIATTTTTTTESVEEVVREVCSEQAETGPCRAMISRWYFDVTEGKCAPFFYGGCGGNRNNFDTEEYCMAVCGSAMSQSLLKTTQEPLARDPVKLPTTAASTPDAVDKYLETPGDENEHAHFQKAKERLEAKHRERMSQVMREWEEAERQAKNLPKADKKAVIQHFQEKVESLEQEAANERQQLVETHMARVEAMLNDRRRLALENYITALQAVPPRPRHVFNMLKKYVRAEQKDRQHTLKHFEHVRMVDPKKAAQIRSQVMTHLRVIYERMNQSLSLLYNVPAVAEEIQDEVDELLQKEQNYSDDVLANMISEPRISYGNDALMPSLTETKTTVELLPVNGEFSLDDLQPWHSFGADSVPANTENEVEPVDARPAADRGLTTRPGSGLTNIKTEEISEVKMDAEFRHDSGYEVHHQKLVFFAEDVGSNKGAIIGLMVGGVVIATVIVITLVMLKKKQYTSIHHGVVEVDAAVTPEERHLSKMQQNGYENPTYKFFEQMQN
Chain of Acetylcholinesterase (P22303 whole entry): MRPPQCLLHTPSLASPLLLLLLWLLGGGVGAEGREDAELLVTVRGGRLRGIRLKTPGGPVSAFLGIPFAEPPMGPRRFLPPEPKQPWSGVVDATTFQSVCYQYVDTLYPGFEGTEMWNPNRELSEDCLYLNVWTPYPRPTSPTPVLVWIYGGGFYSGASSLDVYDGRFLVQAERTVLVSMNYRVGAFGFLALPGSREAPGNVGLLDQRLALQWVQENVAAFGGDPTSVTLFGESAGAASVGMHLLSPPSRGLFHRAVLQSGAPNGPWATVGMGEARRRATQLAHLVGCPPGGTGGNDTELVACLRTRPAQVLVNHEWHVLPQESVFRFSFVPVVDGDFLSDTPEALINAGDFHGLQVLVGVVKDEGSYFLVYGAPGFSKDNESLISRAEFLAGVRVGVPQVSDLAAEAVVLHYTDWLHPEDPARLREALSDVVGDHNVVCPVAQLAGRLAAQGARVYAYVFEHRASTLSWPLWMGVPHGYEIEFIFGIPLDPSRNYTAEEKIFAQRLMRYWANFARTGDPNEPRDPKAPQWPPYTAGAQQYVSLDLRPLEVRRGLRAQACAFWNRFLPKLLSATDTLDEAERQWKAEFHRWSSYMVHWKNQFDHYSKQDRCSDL
Chain of Histone deacetylase 7 (Q8WUI4 whole entry): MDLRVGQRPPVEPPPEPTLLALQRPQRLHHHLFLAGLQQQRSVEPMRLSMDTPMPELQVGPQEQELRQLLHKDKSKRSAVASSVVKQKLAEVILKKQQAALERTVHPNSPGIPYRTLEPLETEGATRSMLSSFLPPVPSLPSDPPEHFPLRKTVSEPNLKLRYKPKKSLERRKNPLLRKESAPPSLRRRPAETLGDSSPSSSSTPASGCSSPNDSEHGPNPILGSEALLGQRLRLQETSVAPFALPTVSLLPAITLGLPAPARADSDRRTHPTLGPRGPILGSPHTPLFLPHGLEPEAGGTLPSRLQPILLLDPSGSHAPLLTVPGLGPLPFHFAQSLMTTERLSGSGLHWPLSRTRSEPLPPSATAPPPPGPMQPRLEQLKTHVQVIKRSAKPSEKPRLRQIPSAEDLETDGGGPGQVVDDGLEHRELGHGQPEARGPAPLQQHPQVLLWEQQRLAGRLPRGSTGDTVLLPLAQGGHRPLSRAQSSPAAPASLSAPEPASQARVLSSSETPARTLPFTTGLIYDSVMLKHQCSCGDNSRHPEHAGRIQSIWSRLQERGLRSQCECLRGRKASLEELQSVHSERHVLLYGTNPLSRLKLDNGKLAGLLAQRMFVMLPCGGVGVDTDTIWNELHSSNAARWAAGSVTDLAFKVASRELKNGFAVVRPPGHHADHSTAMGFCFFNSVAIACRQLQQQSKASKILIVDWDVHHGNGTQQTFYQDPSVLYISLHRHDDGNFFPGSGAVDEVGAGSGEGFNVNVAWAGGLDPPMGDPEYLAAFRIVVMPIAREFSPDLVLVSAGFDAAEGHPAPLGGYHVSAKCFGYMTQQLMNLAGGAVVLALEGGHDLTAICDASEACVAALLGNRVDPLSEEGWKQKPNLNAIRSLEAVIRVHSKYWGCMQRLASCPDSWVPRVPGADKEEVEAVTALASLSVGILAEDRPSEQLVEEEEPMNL
Chain of Histone deacetylase 8 (Q9BY41 whole entry): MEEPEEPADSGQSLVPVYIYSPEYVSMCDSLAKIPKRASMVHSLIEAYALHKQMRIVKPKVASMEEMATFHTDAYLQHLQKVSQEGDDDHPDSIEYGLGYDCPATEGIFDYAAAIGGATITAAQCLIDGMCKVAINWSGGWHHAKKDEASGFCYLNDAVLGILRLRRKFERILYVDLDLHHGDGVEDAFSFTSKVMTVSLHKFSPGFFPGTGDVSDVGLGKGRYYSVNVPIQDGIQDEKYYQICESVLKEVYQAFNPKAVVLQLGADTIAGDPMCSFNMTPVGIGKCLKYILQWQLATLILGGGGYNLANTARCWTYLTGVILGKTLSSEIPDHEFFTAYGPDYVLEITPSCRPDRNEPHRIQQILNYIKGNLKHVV
Chain of Histone deacetylase 2 (Q92769 whole entry): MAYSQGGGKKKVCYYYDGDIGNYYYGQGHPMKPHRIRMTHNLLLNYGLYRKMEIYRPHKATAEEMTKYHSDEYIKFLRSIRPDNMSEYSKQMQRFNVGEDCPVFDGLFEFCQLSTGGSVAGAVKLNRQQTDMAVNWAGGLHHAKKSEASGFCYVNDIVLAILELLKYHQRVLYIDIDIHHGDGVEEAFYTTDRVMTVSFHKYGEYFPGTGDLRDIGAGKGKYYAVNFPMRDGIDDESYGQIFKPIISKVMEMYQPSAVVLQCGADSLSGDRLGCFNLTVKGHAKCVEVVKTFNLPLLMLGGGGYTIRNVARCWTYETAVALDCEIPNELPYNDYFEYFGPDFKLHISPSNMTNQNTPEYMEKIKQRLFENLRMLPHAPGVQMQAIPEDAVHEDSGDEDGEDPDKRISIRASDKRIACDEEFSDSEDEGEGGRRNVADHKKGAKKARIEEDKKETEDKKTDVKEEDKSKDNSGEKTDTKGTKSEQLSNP
Chain of Histone deacetylase 4 (P56524 whole entry): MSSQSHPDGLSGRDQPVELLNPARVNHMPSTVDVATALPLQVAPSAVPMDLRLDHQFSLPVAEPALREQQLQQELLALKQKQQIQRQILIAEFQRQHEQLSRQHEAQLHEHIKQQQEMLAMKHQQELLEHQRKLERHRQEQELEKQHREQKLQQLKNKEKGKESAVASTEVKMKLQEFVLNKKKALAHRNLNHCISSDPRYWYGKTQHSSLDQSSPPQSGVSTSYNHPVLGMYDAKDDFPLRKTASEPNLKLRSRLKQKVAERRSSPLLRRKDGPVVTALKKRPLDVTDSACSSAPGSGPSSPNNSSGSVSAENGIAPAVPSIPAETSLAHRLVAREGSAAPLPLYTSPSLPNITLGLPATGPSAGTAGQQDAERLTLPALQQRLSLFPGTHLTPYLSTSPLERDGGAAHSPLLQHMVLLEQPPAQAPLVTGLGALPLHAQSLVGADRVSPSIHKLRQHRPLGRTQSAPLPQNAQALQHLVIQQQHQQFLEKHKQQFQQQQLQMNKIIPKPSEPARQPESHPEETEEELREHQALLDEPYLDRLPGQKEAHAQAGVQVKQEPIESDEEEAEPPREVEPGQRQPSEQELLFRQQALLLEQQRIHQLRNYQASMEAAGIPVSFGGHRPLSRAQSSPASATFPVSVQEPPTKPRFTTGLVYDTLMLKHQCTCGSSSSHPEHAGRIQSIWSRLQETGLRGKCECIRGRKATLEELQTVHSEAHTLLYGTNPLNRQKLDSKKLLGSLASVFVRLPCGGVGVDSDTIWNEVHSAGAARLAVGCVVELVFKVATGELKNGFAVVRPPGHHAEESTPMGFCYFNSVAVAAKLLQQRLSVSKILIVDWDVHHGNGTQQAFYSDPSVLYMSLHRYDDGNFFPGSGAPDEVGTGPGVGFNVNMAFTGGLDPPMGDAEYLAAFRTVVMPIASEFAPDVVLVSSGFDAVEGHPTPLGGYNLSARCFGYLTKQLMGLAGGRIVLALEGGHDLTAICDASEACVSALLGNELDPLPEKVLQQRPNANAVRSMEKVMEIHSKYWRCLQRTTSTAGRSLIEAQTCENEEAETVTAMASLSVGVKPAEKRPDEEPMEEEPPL

In turn, `COc1cc2c(cc1OC)C(=O)/C(=C/c1ccc(OCCN3CCCCC3)cc1)C2` gave an IC50 on Acetylcholinesterase of 300 nM.

Take `O=C1/C(=C/c2ccc(O)c(O)c2)Oc2cc(O)cc(O)c21` [AUREUSIDIN]: the Ki came out at 1660 nM on Histone deacetylase 2, 800 nM at Histone deacetylase 4, 1660 nM on Histone deacetylase 8 and 1660 nM on Histone deacetylase 7. Also, the inhibition in series [1] is 62%. Further, the EC50 in the series on HT-22 [2] is 11900 nM. In addition, the viability at 40 µM in the series with HT-22 [3] turned out to be 97%.

Molecule `CC(=O)N1/C(=C\c2ccc(-c3cnc4ccccc4c3)cc2)C(=O)c2ccccc21` showed a CC50 in [4] of 19 nM. For the same molecule, in series [5], the MIC90 was 0.65 µM (≈ 0.254 µg/mL) and the MIC99 stood at 0.74 µM (≈ 0.289 µg/mL).

As for `Cc1ccc2c(c1)C(=O)/C(=C/c1coc3ccc(C)cc3c1=O)O2`, the MIC in the series with Pseudomonas aeruginosa [6] was determined as 1.6 µM (≈ 0.509 µg/mL); in the series with Staphylococcus aureus [7], 1.6 µM (≈ 0.509 µg/mL); with Aspergillus flavus [8] it was 14 µM (≈ 4.46 µg/mL); with Aspergillus niger, 14 µM (≈ 4.46 µg/mL).

As for `COc1ccc(/C=C2\Oc3c(ccc(OC(C)=O)c3COC(C)=O)C2=O)cc1OC`, in the series with PC-3, the IC50 is 740 nM.

Consider `C=CCn1c(=O)c(/C=C2\Oc3cc(O)cc(O)c3C2=O)cc2cc(C)ccc21`, for which the minimum inhibitory concentration (MIC) in the series on Pseudomonas aeruginosa [9] was determined as 33 µM (≈ 12.4 µg/mL).

Turning to `O=C1/C(=C/c2ccc(O)c(Br)c2)Oc2c(Br)cccc21`, on Casein kinase 2, the IC50 is on record as 3.3 nM.

As to `O=C1/C(=C(\O)c2ccc3ccccc3c2)Cc2ccccc21`, in the series on U-251, the 50% inhibitory concentration (IC50) turned out to be 2500 nM.

As to `O=C1/C(=C/c2ccc(Br)cc2)Oc2c1ccc1c2C=CCO1`, the MIC in the series on Aspergillus flavus [10] came out at 18 µM (≈ 6.39 µg/mL); with Bacillus subtilis, 4.4 µM (≈ 1.56 µg/mL); in the series with Candida albicans it was 18 µM (≈ 6.39 µg/mL); in the series on Staphylococcus aureus [11] it was 4.4 µM (≈ 1.56 µg/mL); in the series on Proteus vulgaris, 4.4 µM (≈ 1.56 µg/mL); in the series on Escherichia coli, 4.4 µM (≈ 1.56 µg/mL).

`Cc1ccc2c(c1C)C(=O)/C(=C/c1ccccc1)C2` had a half-inhibitory concentration (IC50) in series [12] of 66 nM.

In series [13], `COc1cc2c(cc1OC)C(=O)/C(=C/c1cc[n+](Cc3ccccc3F)cc1)O2` registered an IC50 of 1620 nM.

In the case of `COc1cc2c(cc1OC)C(=O)/C(=C/c1ccc([N+](=O)[O-])cc1)C2`, the IC50 in [14] came out at 1800 nM; in series [15], 30 nM; in series [16] it was 7900 nM.
